Assays:
[1] = target: T1, CYP2D6 (Homo sapiens, UniProt P10635); assay: Cocktail assay for CYPs in human liver microsomes, dextromethorphan O-demethylation (2D6); type: biochemical; conditions: 5 μM dextromethorphan, 10 min at 37° C.
T1 construct: 0.1 mg/mL protein human liver microsomes (BD Gentest); tissue BD Gentest; host or cells: human liver microsomes
Experimental: (§1) This assay was performed in a standard 96-well plate design. IC50 values were calculated from the percent inhibition observed for each test compound at 6 concentrations (for example, 0.0032, 0.016, 0.08, 0.4, 2 and 10 μM). The incubation substrate mix contains 10 μM phenacetin (1A2), 5 μM diclofenac (2C9), 30 μM mephenytoin (2C19), 5 μM dextromethorphan (2D6) and 2 μM midazolam (3A4), 0.1 mg/mL protein human liver microsomes (BD Gentest), 1 mM NAPDH, 3.3 mM MgCl2 and 100 mM potassium phosphate buffer (pH 7.4). The production of the metabolite of each probe substrate was determined after incubation for 10 min at 37° C. Quantitation of the metabolite peak area ratio against an internal standard (tolbutamide) was determined by LC/MS/MS analysis following acetonitrile treatment of the incubations.
(§2) Samples were analyzed in the MRM mode with a SCIEX API-4000 mass spectrometer (Applied Biosystems, Foster City, Calif.), with a Shimadzu LC-20 AD pump (Shimadzu corporation, Kyoto, JP) and a CTC PAL autosampler (Agilent Technologies, Switzerland). A Phenomenex, Luna, 5 μm, 100A, 2.00×30 mm HPLC column was used for the separation. The mobile phases were: (A) 0.1% formic acid in water and (B) 0.1% formic acid in acetonitrile. The binary gradient was as follows. AutoSampler: CTC PAL
(§3) The peak area ratio of the analyte to the internal standard was used to quantify the metabolite. The values of peak area ratios in the presence of test compound were compared to those of maximum or minimum controls and were expressed as % inhibition by interpolating between the maximum and minimum peak area ratios. Incubations with no inhibitor were defined as the maxima. The following equation was used to calculate the % inhibition: [1−[(X−Low control)/(High control−Low control)]]*100 For the IC50 calculation, SigmaPlot was used to plot the mean % inhibition versus the test compound concentrations and for non-linear regression analysis of the data. Depending on the range of data points defining the inhibition curve, the data may have been fit to the 4-parameter logistic equation.

[2] = target: T2, CYP2C19 (Homo sapiens, UniProt P33261); assay: Cocktail assay for CYPs in human liver microsomes, mephenytoin 4′-hydroxylation (2C19); type: biochemical; conditions: 30 μM mephenytoin, 10 min at 37° C.
T2 construct: 0.1 mg/mL protein human liver microsomes (BD Gentest); tissue BD Gentest; host or cells: human liver microsomes
Experimental: as §1, §2, §3

[3] = target: T3, human CYP11B1 (Homo sapiens, UniProt P15538); assay: IC50 vs CYP11B1 by measurement of cortisol synthesis in V79 cells; type: cell-based; conditions: V79 cells expressing human CYP11B1, 1500 nM RSS, cortisol HTRF
T3 construct: expressed in transfected cells
T3 sequence (P15538 25-503): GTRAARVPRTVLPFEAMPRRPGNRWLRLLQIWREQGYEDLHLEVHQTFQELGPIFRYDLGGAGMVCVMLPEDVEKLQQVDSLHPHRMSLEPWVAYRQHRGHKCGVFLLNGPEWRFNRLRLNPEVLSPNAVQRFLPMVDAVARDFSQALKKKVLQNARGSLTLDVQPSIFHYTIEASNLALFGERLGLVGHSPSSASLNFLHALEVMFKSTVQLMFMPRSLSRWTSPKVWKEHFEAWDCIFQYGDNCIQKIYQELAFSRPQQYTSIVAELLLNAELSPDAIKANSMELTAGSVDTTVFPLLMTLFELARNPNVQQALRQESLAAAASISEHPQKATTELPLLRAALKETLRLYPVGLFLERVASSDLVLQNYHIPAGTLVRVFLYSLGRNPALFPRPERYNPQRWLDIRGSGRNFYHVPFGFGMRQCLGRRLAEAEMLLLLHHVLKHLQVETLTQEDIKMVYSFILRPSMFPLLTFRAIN
Experimental: (§4) This assay was performed in a standard 384-well plate design using cultured V79 cells stably expressing human CYP11B1 or human CYP11B2. Test compounds at 10 concentrations (for example, 10000, 3333.3, 1111.1, 370.4, 123.5, 41.2, 13.7, 4.6, 1.5 and 0.5 nM) were added in 384-well plate after the cell-seeding procedure. The incubation substrate contains 1500 nM RSS for CYP11B1 assay/750 nM DOC for CYP11B2 assay. The Cortisol/Aldosterone production of cell culture supernatant was determined by Cortisol/Aldosterone HTRF kit after for about 15 hours incubation at RT (protect from light). IC50 (nM) values were calculated from the percent inhibition observed for each test compound at 10 concentrations.
(§5) The assay plate was read using Envision (Perkin Elmer, Waltham, Mass.) at 665 nm and 590 nm (using Filter Barcode of 217#, 205#; Mirror Barcode of 446#).
(§6) Data are analyzed using Assay Data Analyzer. All ratio data (665 nm/590 nm) are back calculated according to the standard curve, resulting in Cortisol/Aldosterone concentrations. IC50 (nM) values are reported as the Inflection Point (IP) of a four parameter fit of the titration data.
(§7) The following equation was used to calculate the % inhibition: % Activity=100×{1−(Sample_back calculated Cortisol/Aldosterone concentration−LC_back calculated Cortisol/Aldosterone concentration)/(HC_back calculated Cortisol/Aldosterone concentration−LC_back calculated Cortisol/Aldosterone concentration)} Curve Fitting: Four Parameter Logistic: […]

[4] = target: T4, CYP3A4 (Homo sapiens, UniProt P08684); assay: Cocktail assay for CYPs in human liver microsomes, midazolam 1′-hydroxylation (3A4); type: biochemical; conditions: 2 μM midazolam, 10 min at 37° C.
T4 construct: 0.1 mg/mL protein human liver microsomes (BD Gentest); tissue BD Gentest; host or cells: human liver microsomes
Experimental: as §1, §2, §3

[5] = target: T5, CYP2C9 (Homo sapiens, UniProt P11712); assay: Cocktail assay for CYPs in human liver microsomes, diclofenac 4′-hydroxylation (2C9); type: biochemical; conditions: 5 μM diclofenac, 10 min at 37° C.
T5 construct: 0.1 mg/mL protein human liver microsomes (BD Gentest); tissue BD Gentest; host or cells: human liver microsomes
Experimental: as §1, §2, §3

[6] = target: T6, CYP1A2 (Homo sapiens, UniProt P05177); assay: Cocktail assay for CYPs in human liver microsomes, phenacetin O-deethylation (1A2); type: biochemical; conditions: 10 μM phenacetin, 10 min at 37° C.
T6 construct: 0.1 mg/mL protein human liver microsomes (BD Gentest); tissue BD Gentest; host or cells: human liver microsomes
T6 sequence (P05177 1-516): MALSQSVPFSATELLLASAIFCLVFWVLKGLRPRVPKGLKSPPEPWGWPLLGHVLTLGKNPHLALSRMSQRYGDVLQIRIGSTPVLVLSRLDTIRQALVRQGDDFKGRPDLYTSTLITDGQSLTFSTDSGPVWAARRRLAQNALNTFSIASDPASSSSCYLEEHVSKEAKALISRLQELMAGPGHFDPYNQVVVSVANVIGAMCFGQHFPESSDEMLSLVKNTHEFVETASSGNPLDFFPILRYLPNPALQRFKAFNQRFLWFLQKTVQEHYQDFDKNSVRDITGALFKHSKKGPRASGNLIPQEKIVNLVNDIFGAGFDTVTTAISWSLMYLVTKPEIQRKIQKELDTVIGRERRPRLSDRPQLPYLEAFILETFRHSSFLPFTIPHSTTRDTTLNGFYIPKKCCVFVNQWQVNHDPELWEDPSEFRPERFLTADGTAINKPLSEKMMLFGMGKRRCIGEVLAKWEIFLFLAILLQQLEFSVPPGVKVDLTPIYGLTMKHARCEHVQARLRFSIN
Experimental: as §1, §2, §3

[7] = target: T7, human CYP11B2 (Homo sapiens, UniProt P19099); assay: IC50 vs CYP11B2 by measurement of aldosterone synthesis in V79 cells; type: cell-based; conditions: V79 cells expressing human CYP11B2, 750 nM DOC, aldosterone HTRF
T7 construct: expressed in transfected cells
T7 sequence (P19099 25-503): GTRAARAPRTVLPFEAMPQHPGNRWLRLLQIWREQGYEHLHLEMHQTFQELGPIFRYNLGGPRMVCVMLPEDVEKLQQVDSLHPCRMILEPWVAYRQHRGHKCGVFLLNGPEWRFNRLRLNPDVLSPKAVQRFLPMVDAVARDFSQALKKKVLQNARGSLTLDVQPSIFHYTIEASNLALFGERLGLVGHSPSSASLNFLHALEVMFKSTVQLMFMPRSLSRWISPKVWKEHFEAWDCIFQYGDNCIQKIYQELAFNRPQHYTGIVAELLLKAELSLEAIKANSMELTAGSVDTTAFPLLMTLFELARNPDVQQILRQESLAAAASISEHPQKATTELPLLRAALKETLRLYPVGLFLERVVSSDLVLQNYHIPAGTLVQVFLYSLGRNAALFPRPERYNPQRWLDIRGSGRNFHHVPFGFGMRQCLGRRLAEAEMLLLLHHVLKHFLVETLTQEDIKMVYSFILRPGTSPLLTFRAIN
Experimental: as §4, §5, §6, §7

T1 sequence (P10635 whole entry): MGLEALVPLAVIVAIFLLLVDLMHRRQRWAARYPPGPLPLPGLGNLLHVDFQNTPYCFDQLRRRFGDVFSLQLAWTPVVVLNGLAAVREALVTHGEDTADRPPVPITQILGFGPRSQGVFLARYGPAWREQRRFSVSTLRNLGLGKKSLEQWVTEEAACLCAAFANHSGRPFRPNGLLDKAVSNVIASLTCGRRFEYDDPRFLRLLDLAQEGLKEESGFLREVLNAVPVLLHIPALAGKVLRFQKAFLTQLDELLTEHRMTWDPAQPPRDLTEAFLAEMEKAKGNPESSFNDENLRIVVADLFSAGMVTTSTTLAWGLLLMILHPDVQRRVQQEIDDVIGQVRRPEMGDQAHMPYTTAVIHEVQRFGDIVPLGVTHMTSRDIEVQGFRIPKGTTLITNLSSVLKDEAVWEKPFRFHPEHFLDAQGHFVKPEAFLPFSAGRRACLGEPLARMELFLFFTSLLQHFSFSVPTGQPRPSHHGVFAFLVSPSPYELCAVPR
T4 sequence (P08684 whole entry): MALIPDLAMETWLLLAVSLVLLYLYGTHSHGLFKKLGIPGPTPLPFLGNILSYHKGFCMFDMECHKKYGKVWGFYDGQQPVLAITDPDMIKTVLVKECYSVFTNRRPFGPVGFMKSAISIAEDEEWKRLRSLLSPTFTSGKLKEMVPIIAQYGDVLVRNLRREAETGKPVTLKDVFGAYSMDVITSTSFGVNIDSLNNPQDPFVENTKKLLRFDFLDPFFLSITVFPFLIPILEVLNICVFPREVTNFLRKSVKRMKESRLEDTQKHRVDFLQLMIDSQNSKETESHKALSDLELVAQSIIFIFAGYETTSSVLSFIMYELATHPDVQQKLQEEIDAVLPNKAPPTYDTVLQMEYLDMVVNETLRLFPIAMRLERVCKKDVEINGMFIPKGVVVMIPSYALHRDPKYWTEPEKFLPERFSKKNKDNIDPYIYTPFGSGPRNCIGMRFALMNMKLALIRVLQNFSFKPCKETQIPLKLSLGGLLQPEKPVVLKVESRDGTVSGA
T5 sequence (P11712 whole entry): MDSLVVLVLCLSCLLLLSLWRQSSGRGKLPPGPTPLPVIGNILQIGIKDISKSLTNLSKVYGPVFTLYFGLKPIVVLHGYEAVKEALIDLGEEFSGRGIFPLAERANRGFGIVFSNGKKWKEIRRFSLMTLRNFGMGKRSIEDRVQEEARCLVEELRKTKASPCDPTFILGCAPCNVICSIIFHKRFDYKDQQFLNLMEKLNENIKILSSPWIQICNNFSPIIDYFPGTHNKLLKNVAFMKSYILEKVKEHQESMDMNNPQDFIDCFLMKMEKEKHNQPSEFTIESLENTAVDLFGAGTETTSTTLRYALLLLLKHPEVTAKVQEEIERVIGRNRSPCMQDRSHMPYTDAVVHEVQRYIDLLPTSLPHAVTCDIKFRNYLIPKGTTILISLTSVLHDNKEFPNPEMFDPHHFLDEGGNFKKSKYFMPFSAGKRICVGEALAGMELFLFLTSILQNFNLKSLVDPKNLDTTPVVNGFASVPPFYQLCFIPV
T2 sequence (P33261 whole entry): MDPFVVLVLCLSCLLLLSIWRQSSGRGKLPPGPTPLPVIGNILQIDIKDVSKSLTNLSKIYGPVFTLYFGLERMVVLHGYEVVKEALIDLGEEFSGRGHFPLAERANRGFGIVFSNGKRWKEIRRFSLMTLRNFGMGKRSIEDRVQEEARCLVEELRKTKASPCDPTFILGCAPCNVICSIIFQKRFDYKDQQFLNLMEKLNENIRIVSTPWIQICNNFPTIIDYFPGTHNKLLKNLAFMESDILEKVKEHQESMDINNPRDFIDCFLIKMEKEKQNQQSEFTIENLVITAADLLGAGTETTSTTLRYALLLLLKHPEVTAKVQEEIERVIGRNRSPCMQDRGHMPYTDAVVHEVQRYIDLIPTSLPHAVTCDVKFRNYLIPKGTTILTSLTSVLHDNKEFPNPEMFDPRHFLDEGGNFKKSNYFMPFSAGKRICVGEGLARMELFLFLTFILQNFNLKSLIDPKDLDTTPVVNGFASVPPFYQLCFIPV

SMILES	IC50 [1]	IC50 [2]	IC50 [3]	IC50 [4]	IC50 [5]	IC50 [6]	IC50 [7]
C[C@@H](c1ccccc1-c1ccc(F)cc1)n1cncc1C(=O)N1CCC(N2CC[C@@H](O)[C@H](F)C2)CC1 [Compound 14]	> 10 µM	> 10 µM	22 µM	0.0061 µM	> 10 µM	> 10 µM	> 50 µM
C[C@@H]1CN(C2CCN(C(=O)c3cncn3[C@@H](C)c3ccccc3-c3ccc(F)cc3)CC2)CC[C@H]1O [Compound 18]	> 10 µM	> 10 µM	> 50 µM	0.0097 µM	> 10 µM	> 10 µM	> 50 µM
C[C@@H](c1ccccc1-c1ccc(F)cc1)n1cncc1C(=O)N1CC[C@@H](N2CCC(O)CC2)[C@@H](F)C1 [Compound 2]	> 10 µM	> 10 µM	24.3 µM	0.005 µM	> 10 µM	> 10 µM	31 µM
C[C@@H](c1ccccc1-c1ccc(F)cc1)n1cncc1C(=O)N1CCC(N2C[C@H](O)[C@@H](F)C2)CC1 [Compound 16]	> 10 µM	> 10 µM	10.2 µM	0.0043 µM	> 10 µM	> 10 µM	24.3 µM
C[C@@H](c1ccccc1-c1ccc(F)cc1)n1cncc1C(=O)N1CCC(NC2COC[C@H]2O)CC1 (stereo partly shown) [Compound 24]	> 10 µM	> 10 µM	> 50 µM	0.0057 µM	> 10 µM	> 10 µM	> 50 µM
C[C@@H](c1ccccc1-c1ccc(F)cc1)n1cncc1C(=O)N1CCC(N2CCC(O)CC2)CC1 [Compound 1]	6.55 µM	> 10 µM	33.5 µM	0.0068 µM	> 10 µM	> 10 µM	> 50 µM
C[C@@H](c1ccccc1-c1ccc(F)cc1)n1cncc1C(=O)N1CCC(N2CCNC(=O)CC2)CC1 [Compound 21]	> 10 µM	> 10 µM	> 50 µM	0.0068 µM	> 10 µM	> 10 µM	> 50 µM
C[C@@H](c1ccccc1-c1ccc(F)cc1)n1cncc1C(=O)N1CCCC(N2CCC(C)(O)CC2)CC1 (single isomer, unassigned) [Compound 3a]	4.05 µM	> 10 µM	37.4 µM	0.0073 µM	> 10 µM	> 10 µM	> 50 µM

Second part, the compound after the results:

IC50 [1]	IC50 [2]	IC50 [3]	IC50 [4]	IC50 [5]	IC50 [6]	IC50 [7]	SMILES
5.86 µM	> 10 µM	12.2 µM	0.005 µM	> 10 µM	> 10 µM	> 50 µM	COc1ccccc1-c1ccccc1[C@H](C)n1cncc1C(=O)N1CCC2NCCO[C@@H]2C1 (stereo partly shown) [Compound 44]
≥ 10 µM	9.54 µM	6.03 µM	0.0037 µM	> 10 µM	> 10 µM	36.3 µM	C[C@@H](c1ccccc1-c1ccc(F)cc1)n1cncc1C(=O)N1CCC(F)(CN2CCOCC2)CC1 [Compound 49]
7.36 µM	> 10 µM	> 50 µM	0.0091 µM	> 10 µM	> 10 µM	23.6 µM	CO[C@H]1CN(C(=O)c2cncn2[C@@H](C)c2ccccc2-c2ccc(F)cc2)CC[C@@H]1N1CCOC1=O [Compound 33]
8.08 µM	> 10 µM	26.9 µM	0.0053 µM	> 10 µM	> 10 µM	> 50 µM	C[C@@H](c1ccccc1-c1ccc(F)cc1)n1cncc1C(=O)N1CCC2NC(=O)CO[C@@H]2C1 (mixture of isomers) [Compound 50]
7.09 µM	> 10 µM	30.3 µM	0.0066 µM	> 10 µM	> 10 µM	> 50 µM	C[C@@H](c1ccccc1-c1cccc2c1OCC2)n1cncc1C(=O)N1CCC2NCCO[C@@H]2C1 (stereo partly shown) [Compound 43]

Reference: patent publication US9981969B2, “Imidazole derivatives and methods of use thereof for improving the pharmacokinetics of a drug” (MERCK SHARP & DOHME CORP., priority 2013, dated 2018)
